From PMC12655252, “Synthesis of 1H-Pyrrolo[3,2-g]isoquinoline Derivatives as Ligands Targeting Haspin Kinase” (Molecules, 2025)

What was measured:
Format in all cases: biochemical
[1] = molecular target: T1, HsCLK1 (Homo sapiens, UniProt P49759); test: ADP-Glo in vitro kinase inhibition assay, CLK1; conditions: 10 μM ATP; for remaining activity at 1 µM: 1 μM compound; for remaining activity at 1 µM / remaining activity at 10 µM: read-out: CLK1 % residual activity; for remaining activity at 10 µM: 10 μM compound
T1 construct: made in house; host or cells: Sf9 insect cells
Procedure: (§1) We previouly reported that substitution at the 3-position with halogen atoms or pyridinyl or formyl groups was compatible with high potency toward Haspin kinase. To check if the current structural changes were in line with potent Haspin inhibition and high selectivity, enabling consideration of these compounds as possible targeting ligands for the PROTAC approach, compounds 2, 3, 8–11, and 15–17 were evaluated toward a panel of eight protein kinases, including Haspin, as well as other kinases known to be frequently cross-inhibited (CLK1, DYRK1A, CDK9/Cyclin T, GSK-3β, CK1ε, CDK5/p25, and Pim1) (Table 1). The percentage of residual kinase activity was evaluated at 10 μM and 1 μM compound concentrations. […].
(§2) Kinase inhibition was tested in 384-well plates using the ADP-GloTM assay kit (Promega, Madison, WI, USA) according to the procedure recommended by the manufacturer. Reactions were set up in a final volume of 6 μL in an appropriate kinase buffer (10 mM MgCl2, 1 mM EGTA, 1 mM DTT, 25 mM Tris-HCl pH 7.5, 50 μg/mL heparin) with either protein or peptide as the substrate in the presence of 10 μM ATP. To stop the kinase reaction, 6 μL of ADP-GloTM Kinase Reagent was added after 30 min at 30 °C. Then, after 50 min of incubation at room temperature (RT), 12 μL of Kinase Detection Reagent was added. The transmitted signal was measured after 1 h at RT using the Envision (Perkin Elmer, Waltham, MA, USA) microplate luminometer and expressed in relative light units (RLU). In order to determine the half-maximal inhibitory concentration (IC50), all assays were performed in duplicate in the absence or presence of increasing doses of the tested compounds. GraphPad Prism10 software (GraphPad Software, San Diego, CA, USA) was used to fit dose–response curves and to determine the IC50 values. Kinase activities are given as percentages of maximal activity, i.e., measured in the absence of inhibitor. Peptide substrates were obtained from Proteogenix (Schiltigheim, France).
(§3) The following protein kinases were analyzed in this study: CDK5/p25 (human, vector pGEX-2T, expressed in bacteria; kindly provided by Dr. J. H. Wang) was assayed with 0.8 μg/μL of histone H1 as substrate; HsCDK9/CyclinT (NP_001252/KAI4065659, cloned in pTEFb vector, expressed by baculovirus in Sf9 insect cells) were assayed with 0.27 μg/μL of the following peptide: […], as substrate; HsCK1ε (NP_001885, cloned in pFAST-BAC vector, expressed in Sf9 insect cells) was assayed with 0.022 μg/μL of the following peptide: […]pAYSITA (“Sp” stands for phosphorylated serine) as CK1-specific substrate; HsGSK3β (AAH12760, cloned in pFAST-BAC, expressed by baculovirus in Sf9 insect cells) were assayed with 0.010 μg/μL of GS-1 peptide, a GSK-3-selective substrate ([…]pEDEEE); HsHaspin-kd (NP_114171, kinase domain, amino acids 470–798 cloned in pGEX-6P-3, expressed in bacteria) was assayed with 0.007 μg/μL of histone H3 (1–21) peptide ([…]) as substrate; Pim-1 (KAI4018123, expressed in bacteria) was assayed with 0.8 μg/μL of histone H1 as substrate; HsCLK1 (NP_004062, cloned in pFAST-BAC, expressed in Sf9 insect cells) was assayed with 0.027 μg/μL of the peptide: […]; RnDYRK1A-kd (Rattus norvegicus, amino acids 1–499, pGEX-2TK, expressed in bacteria, gift from Dr. W. Becker, Aachen, Germany) was tested in the presence of 0.033 μg/μL of the peptide: […].

[2] = molecular target: T2, HsGSK3β (Homo sapiens, UniProt P49841); test: ADP-Glo in vitro kinase inhibition assay, GSK3β; conditions: 10 μM ATP, read-out: GSK3 % residual activity; for remaining activity at 1 µM: 1 μM compound; for remaining activity at 10 µM: 10 μM compound
T2 construct: made in house; host or cells: Sf9 insect cells (baculovirus)
Procedure: as §1, §2, §3

[3] = molecular target: T3, Pim-1 (Homo sapiens, UniProt P11309); test: ADP-Glo in vitro kinase inhibition assay, Pim-1; conditions: 10 μM ATP; for remaining activity at 1 µM: 1 μM compound; for remaining activity at 1 µM / remaining activity at 10 µM: read-out: PIM1 % residual activity; for IC50: read-out: PIM1 IC50; for remaining activity at 10 µM: 10 μM compound
T3 construct: made in house; host or cells: bacteria
Procedure: as §1, §2, §3

[4] = molecular target: T4, HsHaspin-kd (Homo sapiens, UniProt Q8TF76); test: ADP-Glo in vitro kinase inhibition assay, Haspin; conditions: for remaining activity at 1 µM: 1 μM compound; for remaining activity at 1 µM / IC50 / remaining activity at 10 µM: 10 μM ATP, duplicate; for remaining activity at 1 µM / remaining activity at 10 µM: read-out: Haspin % residual activity; for remaining activity at 10 µM: 10 μM compound; for SI: selectivity index = IC50 second most inhibited kinase/IC50 Haspin: second most inhibited kinase named in parentheses below the value (PIM1 or CLK1)
T4 construct: kinase domain, amino acids 470–798 cloned in pGEX-6P-3; made in house; host or cells: bacteria
T4 sequence (Q8TF76 470-798): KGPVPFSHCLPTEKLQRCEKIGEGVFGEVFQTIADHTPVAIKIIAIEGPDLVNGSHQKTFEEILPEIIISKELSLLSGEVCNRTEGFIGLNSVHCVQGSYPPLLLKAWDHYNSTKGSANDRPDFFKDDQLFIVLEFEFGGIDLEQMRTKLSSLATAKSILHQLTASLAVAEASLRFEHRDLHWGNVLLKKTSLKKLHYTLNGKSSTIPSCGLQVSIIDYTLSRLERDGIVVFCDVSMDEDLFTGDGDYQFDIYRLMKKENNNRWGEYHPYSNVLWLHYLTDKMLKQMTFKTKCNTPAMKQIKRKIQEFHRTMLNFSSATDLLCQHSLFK
Procedure: as §1, §2, §3

T3 sequence (P11309 whole entry): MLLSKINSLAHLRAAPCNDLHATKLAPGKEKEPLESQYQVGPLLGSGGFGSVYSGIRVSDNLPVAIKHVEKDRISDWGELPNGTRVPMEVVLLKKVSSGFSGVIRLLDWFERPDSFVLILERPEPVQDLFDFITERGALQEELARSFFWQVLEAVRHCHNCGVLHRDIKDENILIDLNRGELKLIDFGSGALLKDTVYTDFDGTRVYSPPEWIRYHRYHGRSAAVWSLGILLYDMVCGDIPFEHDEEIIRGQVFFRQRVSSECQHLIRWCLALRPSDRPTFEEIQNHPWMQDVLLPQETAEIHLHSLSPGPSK
T2 sequence (P49841 whole entry): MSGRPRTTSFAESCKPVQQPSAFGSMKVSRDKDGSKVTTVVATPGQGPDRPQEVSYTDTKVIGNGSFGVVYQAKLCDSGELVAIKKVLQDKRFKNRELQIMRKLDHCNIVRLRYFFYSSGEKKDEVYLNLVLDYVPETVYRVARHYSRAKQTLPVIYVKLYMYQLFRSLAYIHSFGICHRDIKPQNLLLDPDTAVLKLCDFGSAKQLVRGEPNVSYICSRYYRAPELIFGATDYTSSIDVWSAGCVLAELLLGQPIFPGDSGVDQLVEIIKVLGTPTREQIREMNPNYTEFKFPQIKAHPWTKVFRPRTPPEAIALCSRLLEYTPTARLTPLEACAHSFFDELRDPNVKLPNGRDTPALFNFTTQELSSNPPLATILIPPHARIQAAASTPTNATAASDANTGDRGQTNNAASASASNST
T1 sequence (P49759 whole entry): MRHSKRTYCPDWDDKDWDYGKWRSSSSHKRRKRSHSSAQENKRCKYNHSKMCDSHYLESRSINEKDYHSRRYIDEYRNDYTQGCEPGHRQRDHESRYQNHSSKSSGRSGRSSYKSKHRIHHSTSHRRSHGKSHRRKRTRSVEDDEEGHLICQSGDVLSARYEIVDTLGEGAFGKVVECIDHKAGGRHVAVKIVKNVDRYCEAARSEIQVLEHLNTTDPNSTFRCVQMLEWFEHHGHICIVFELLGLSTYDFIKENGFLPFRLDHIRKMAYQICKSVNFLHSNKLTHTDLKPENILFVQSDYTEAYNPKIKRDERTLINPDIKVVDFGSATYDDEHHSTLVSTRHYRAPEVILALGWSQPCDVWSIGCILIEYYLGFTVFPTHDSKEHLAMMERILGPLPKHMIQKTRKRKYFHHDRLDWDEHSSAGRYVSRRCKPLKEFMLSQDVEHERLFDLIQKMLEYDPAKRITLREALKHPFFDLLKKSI

| remaining activity at 1 µM [1] [%] | remaining activity at 10 µM [1] [%] | remaining activity at 1 µM [2] [%] | remaining activity at 10 µM [2] [%] | remaining activity at 1 µM [3] [%] | IC50 [3] [nM] | remaining activity at 10 µM [3] [%] | remaining activity at 1 µM [4] [%] | IC50 [4] [nM] | remaining activity at 10 µM [4] [%] | SI: selectivity index = IC50 second most inhibited kinase/IC50 Haspin [4] | IC50 [1] [nM] | Compound |
| --- | --- | --- | --- | --- | --- | --- | --- | --- | --- | --- | --- | --- |
| 59 | 18 | 80 | 58 | 17 | 93.7 | 7 | 7 | 10.6 | 1 | 8.8 | – | Nc1ccc(-c2c[nH]c3cc4cnccc4cc23)cn1 [Compound 3, 5-(1H-Pyrrolo[3,2-g]isoquinolin-3-yl)pyridin-2-amine] |
| 55 | 22 | 78 | 71 | 26 | 404 | 8 | 11 | 15.5 | 6 | 26.1 | – | COC(=O)/C=C/c1c[nH]c2cc3cnccc3cc12 [Compound 8, Methyl (E)-3-(1H-Pyrrolo[3,2-g]isoquinolin-3-yl)prop-2-enoate] |
| 32 | 4 | 100 | 86 | 44 | 222 | 0 | 0 | 30.6 | 0 | > 7 | 503 | c1cc2cc3c(-c4cc[nH]n4)c[nH]c3cc2cn1 [Compound 15, 3-(1H-Pyrazol-3-yl)-1H-pyrrolo[3,2-g]isoquinoline] |
| 4 | 0 | 94 | 17 | 20 | – | 0 | 0 | 12.4 | 0 | 8.2 | 102 | c1cc2cc3c(-c4cn[nH]c4)c[nH]c3cc2cn1 [Compound 16, 3-(1H-Pyrazol-4-yl)-1H-pyrrolo[3,2-g]isoquinoline] |
| 47 | 36 | 71 | 65 | 91 | – | 33 | 6 | 81.3 | 0 | – | – | c1c[nH]c(-c2c[nH]c3cc4cnccc4cc23)c1 [Compound 17, 3-(1H-Pyrrol-2-yl)-1H-pyrrolo[3,2-g]isoquinoline] |
